Measured values reported in patent publication EP4800020A2, “ZWITTERIONIC REAGENTS” (Siemens Healthcare Diagnostics, Inc., priority 2010, dated 2011).
Peptide text beside a SMILES is read from it. * marks the point of attachment. X1 = C[N+](C)(CCCC(=O)*)CCCS(=O)(=O)[O-]

Assay: Aqueous solubility of zwitterion-modified hydrophobic peptides in de-ionized water
Format: physicochemical
Conditions: concentration giving a clear solution, peptide labeled at the α-amino group with Z3-PFP
Method: Specifically, four representative hydrophobic peptides, penta(phenylalanine), a tetrapeptide with the sequence Phe-Gly-Gly-Phe, penta(leucine) and penta(isoleucine) were all labeled at the α-amino group with the amine-reactive, zwitterionic reagent Z3-PFP (compound 2c in Figure 1). One such labeling experiment is illustrated in Example 12. The zwitterion-modified peptides were purified by chromatography and their aqueous solubility was assessed by dissolving them in de-ionized water at concentrations that gave clear homogenous solutions. […] Penta(phenylalanine) modified by the zwitterion-containing compound Z3-PFP, compound 2c, dissolved in water and provided a clear solution at a concentration of ~0.5 mM.

In the case of C[N+](C)(CCCC(=O)N[C@@H](Cc1ccccc1)C(=O)N[C@@H](Cc1ccccc1)C(=O)N[C@@H](Cc1ccccc1)C(=O)N[C@@H](Cc1ccccc1)C(=O)N[C@@H](Cc1ccccc1)C(=O)O)CCCS(=O)(=O)[O-] (X1-FFFFF-OH), the solubility is reported as at least 500 µM.

C[N+](C)(CCCC(=O)N[C@@H](Cc1ccccc1)C(=O)NCC(=O)NCC(=O)N[C@@H](Cc1ccccc1)C(=O)O)CCCS(=O)(=O)[O-] (X1-FGGF-OH) showed a solubility of at least 3000 µM.

CC[C@H](C)[C@H](NC(=O)[C@@H](NC(=O)[C@@H](NC(=O)[C@@H](NC(=O)[C@@H](NC(=O)CCC[N+](C)(C)CCCS(=O)(=O)[O-])[C@@H](C)CC)[C@@H](C)CC)[C@@H](C)CC)[C@@H](C)CC)C(=O)O (X1-IIIII-OH) gave a solubility of at least 100 µM.

Work on CC(C)C[C@H](NC(=O)[C@H](CC(C)C)NC(=O)[C@H](CC(C)C)NC(=O)[C@H](CC(C)C)NC(=O)[C@H](CC(C)C)NC(=O)CCC[N+](C)(C)CCCS(=O)(=O)[O-])C(=O)O (X1-LLLLL-OH) yielded a solubility of at least 100 µM.
